Data from article PMC3569853 (European journal of medicinal chemistry, 2012).
Like-named read-outs stand apart in the source and are kept apart here.

Key:
[1] = target: δ-opioid receptor (hDOR-CHO cells) (Homo sapiens, UniProt P41143); assay: Opioid receptor binding assay, δ; details: for δ~ μ: selectivity ratio Ki δ / Ki μ
[2] = target: κ-opioid receptor (hKOR-CHO cells) (Homo sapiens, UniProt P41145); assay: Opioid receptor binding assay, κ; details: for Ki: [3H]-U69,593, CHO hKOR cells, full binding assay, ±SD; for κ/μ: selectivity ratio Ki κ / Ki μ
κ-opioid receptor (hKOR-CHO cells), sequence (P41145 whole entry): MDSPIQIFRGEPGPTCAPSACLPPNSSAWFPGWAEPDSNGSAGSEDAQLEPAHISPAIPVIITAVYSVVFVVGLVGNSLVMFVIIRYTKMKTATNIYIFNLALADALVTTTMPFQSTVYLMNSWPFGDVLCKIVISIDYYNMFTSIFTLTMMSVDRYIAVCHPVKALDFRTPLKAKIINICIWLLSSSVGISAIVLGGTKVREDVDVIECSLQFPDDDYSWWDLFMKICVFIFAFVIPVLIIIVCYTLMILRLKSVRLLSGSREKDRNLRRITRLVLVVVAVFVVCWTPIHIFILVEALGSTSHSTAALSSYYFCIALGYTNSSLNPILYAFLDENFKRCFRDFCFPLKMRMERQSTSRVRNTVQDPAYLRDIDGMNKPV

[3] = target: T1, μ-opioid receptor (hMOR-CHO cells) (Homo sapiens, UniProt P35372); assay: biochemical; format: binding
T1 sequence (P35372 whole entry): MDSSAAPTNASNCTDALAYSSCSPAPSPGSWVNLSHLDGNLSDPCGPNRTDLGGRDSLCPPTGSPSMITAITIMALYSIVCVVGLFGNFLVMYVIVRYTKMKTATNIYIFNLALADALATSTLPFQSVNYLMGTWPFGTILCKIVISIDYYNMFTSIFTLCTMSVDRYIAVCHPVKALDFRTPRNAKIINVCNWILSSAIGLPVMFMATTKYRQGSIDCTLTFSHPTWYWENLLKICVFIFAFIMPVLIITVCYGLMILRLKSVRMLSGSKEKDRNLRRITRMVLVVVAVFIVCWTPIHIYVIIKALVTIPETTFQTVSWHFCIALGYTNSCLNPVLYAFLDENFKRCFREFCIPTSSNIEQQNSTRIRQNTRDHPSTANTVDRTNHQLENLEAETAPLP

[4] = target: T1, μ-opioid receptor (hMOR-CHO cells); assay: biochemical
[5] = target: T1, μ-opioid receptor (hMOR-CHO cells); assay: Initial binding screen, estimated Ki; details: read-out: estimated Ki (μ)
[6] = read-out: Ki δ, [3H]-DADLE, CHO hDOR cells, full binding assay, ±SD

δ-opioid receptor (hDOR-CHO cells), sequence (P41143 whole entry): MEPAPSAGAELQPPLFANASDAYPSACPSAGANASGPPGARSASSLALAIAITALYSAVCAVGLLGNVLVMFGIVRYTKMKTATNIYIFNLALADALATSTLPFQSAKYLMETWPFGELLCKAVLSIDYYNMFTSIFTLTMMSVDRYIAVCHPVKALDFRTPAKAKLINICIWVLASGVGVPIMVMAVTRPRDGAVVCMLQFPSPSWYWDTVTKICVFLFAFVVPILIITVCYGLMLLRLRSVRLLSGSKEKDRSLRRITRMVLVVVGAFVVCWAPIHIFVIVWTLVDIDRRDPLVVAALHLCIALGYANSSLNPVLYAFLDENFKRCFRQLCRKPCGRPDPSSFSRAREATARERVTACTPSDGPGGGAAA

Row | Molecule | Ki [1, 6] [nM] | δ~ μ [1] | Ki ([2]; read-out: Ki κ) [nM] | κ/μ [2] | Ki ([3]; Ki μ) [nM] | Ki [1] [nM] | Ki ([2]; Ki κ) [nM] | Kb [4] [nM] | potency estimated from few doses [5] [nM] | Ki ([3]; read-out: Ki μ) [nM] | Ke μ [4] [nM]
1 | 13-phenethyl-2,3,4,9,10,10a-hexahydro-1H-1,4a-(epiminoethano)phenanthrene-8,9β-diol [Compound 13] | > 10000 | 56 | 923 ± 32 | 5 | – | – | – | – | – | – | –
2 | CN1CCC23CCCC1C2C=Cc1c(O)cccc13 (stereo not drawn) [Compound 14, 13-methyl-2,3,4,10a-tetrahydro-1H-1,4a-(epiminoethano)phenanthren-8-ol] | – | 149 | – | 58 | 67 ± 7 | > 10000 | 3890 ± 441 | – | – | – | –
3 | Oc1cccc2c1CCC1C3CCCC21CCN3CCc1ccccc1 (stereo not drawn) [Compound 17, 13-phenethyl-2,3,4,9,10,10a-hexahydro-1H-1,4a-(epiminoethano)phenanthrene-8-ol] | – | 135 | – | 42 | 21 ± 5 | 2830 ± 223 | 873 ± 101 | 7 ± 1.8 | – | – | –
4 | Oc1cccc2c1C=CC1C3CCCC21CCN3CCc1ccccc1 (stereo not drawn) [Compound 16, 13-phenethyl-2,3,4,10a-tetrahydro-1H-1,4a-(epiminoethano)phenanthren-8-ol] | – | 97 | – | 19 | 19 ± 4 | 1840 ± 212 | 369 ± 26 | 1.7 ± 0.26 | – | – | –
5 | Oc1ccc2c(c1)C13CCCC(C1C=C2)N(CCc1ccccc1)CC3 (stereo not drawn) [Compound 23, 13-phenethyl-2,3,4,10a-tetrahydro-1H-1,4a-(epiminoethano)phenanthren-6-ol] | – | 49 | – | 20 | 2.6 ± 0.35 | 127 ± 31 | 51 ± 4 | 0.34 ± 0.07 | – | – | –
6 | O=C1CC2C3CCCC2(CCN3CCc2ccccc2)c2cc(O)ccc21 (stereo not drawn) [Compound 18, 6-hydroxy-13-phenethyl-3,4,10,10a-tetrahydro-1H-1,4a-(epiminoethano)phenanthren-9(2H)-one] | – | – | – | – | – | – | – | – | 80 | – | –
7 | O=C1CC2C3CCCC2(CCN3CCc2ccccc2)c2cccc(O)c21 (stereo not drawn) [Compound 9, 8-hydroxy-13-phenethyl-3,4,10,10a-tetrahydro-1H-1,4a-(epiminoethano)phenanthren-9(2H)-one] | – | – | – | – | – | – | – | – | 297 | – | –
8 | 13-phenethyl-2,3,4,9,10,10a-hexahydro-1H-1,4a-(epiminoethano)-phenanthrene-8,9α-diol [Compound 12] | > 10000 | 714 | 525 ± 39 | 38 | – | – | – | – | – | 14 ± 2 | 6 ± 1
9 | 13-methyl-2,3,4,9,10,10a-hexahydro-1H-1,4a-(epiminoethano)-phenanthrene-8,9α-diol [Compound 10] | 3220 ± 332 | 107 | 2020 ± 169 | – | – | – | – | – | – | 30 ± 6 | 706 ± 135
10 | 13-phenethyl-2,3,4,9,10,10a-hexahydro-1H-1,4a-(epiminoethano)-phenanthrene-6,9α-diol [Compound 22] | > 10000 | 139 | 1810 ± 95 | 25 | – | – | – | – | – | 72 ± 10 | –
11 | CN1CCC23CCCC1C2C=Cc1ccc(O)cc13 (stereo not drawn) [Compound 20, 13-methyl-2,3,4,10a-tetrahydro-1H-1,4a-(epiminoethano)phenanthren-6-ol] | – | 175 | – | 71 | 57 ± 6 | > 10000 | 4040 ± 363 | – | 67 | – | –
12 | Oc1ccc2c(c1)C13CCCC(C1CC2)N(CCc1ccccc1)CC3 (stereo not drawn) [Compound 24, 13-phenethyl-2,3,4,9,10,10a-hexahydro-1H-1,4a-(epiminoethano)phenanthren-6-ol] | – | 81 | – | 27 | 2.3 ± 0.2 | 186 ± 25 | 61 ± 6 | 0.71 ± 0.13 | – | – | –
